Measurements published in patent US9795595B2, “Methods for treating cancer” (Boston Biomedical, Inc., priority 2014, dated 2017).

How the values were obtained:
Advanced Solid Tumors = assay: Dose escalation study of the Compound of the Invention in adult patients with advanced solid tumors (Phase I); type: in vivo
Source text: In this study, the Compound of the Invention was given orally, continuously, in 28-day cycles until disease progression, unacceptable toxicity, or other discontinuation criteria were met.

cancer stem cell markers = assay: Cancer stem cell markers in biopsied tumor tissue of study patients; type: in vivo, human
Experimental: Escalating doses from 10 mg to 450 mg once daily were administered to 26 patients. Maximum tolerated dose (MTD) was not reached. […] Of 20 evaluable patients, 11 (55%) had stable disease (SD) with a median time to progression of 16 weeks.
Encouraging signs of anti-tumor activity have been observed in pretreated patients with advanced cancer.

nuclear NANOG = assay: Needle biopsy tumor samples before and after 28 days treatment, phase I patients: nuclear NANOG staining; type: in vivo, human; conditions: after 28 days treatment, patient with positive NANOG and STK33 staining
Experimental: (§1) Understanding the clinical relevance of the stemness markers and identifying predictive biomarkers assists clinical development by selecting patients that will most likely to derive clinical benefit from treatment with the Compound of the Invention. In current studies, we studied stemness gene marker in biopsy tumor as well as archival tumor samples from patients. […] Archival tissue from patients receiving the Compound of the Invention was analyzed via immunohistochemistry to determine whether response to the drug was correlated with either NANOG or STK33. […] Importantly, 90.9% of the tumors with STK33 nuclear staining were also positive for nuclear NANOG staining and there was a significant correlation between nuclear STK33 and nuclear NANOG (P<0.0022).

nuclear STK33 = assay: Needle biopsy tumor samples before and after 28 days treatment, phase I patients: nuclear STK33 staining; type: in vivo, human; conditions: after 28 days treatment, patient with positive NANOG and STK33 staining
Experimental: as §1

## CCN(CC)CCNC(=O)c1c(C)[nH]c(/C=C2\C(=O)Nc3ccc(-c4csc(-c5ccccc5)n4)cc32)c1C [Compound of the Invention]
Advanced Solid Tumors
  Patients with tumor regression and/or prolonged stable disease (≧16 weeks), percent: 50%
Advanced Solid Tumors; 450 mg once daily
  Grade 3 diarrhea, number of subjects: 2 subjects
Advanced Solid Tumors; Colorectal Cancer, 5 patients evaluable
  Number of Patients with minor regression or SD ≧16 wks.: 3
Advanced Solid Tumors; Gastric/GEJ Adenocarcinoma, 1 patient evaluable
  Number of Patients with minor regression or SD ≧16 wks.: 1
Advanced Solid Tumors; Head & Neck Cancer, 2 patients evaluable
  Number of Patients with minor regression or SD ≧16 wks.: 2
Advanced Solid Tumors; Hepatocellular Carcinoma, 2 patients evaluable
  Number of Patients with minor regression or SD ≧16 wks.: 1
Advanced Solid Tumors; Non-Small Cell Lung Cancer, 1 patient evaluable
  Number of Patients with minor regression or SD ≧16 wks.: 1
Advanced Solid Tumors; Pancreatic Neuroendocrine, 1 patient evaluable
  Number of Patients with minor regression or SD ≧16 wks.: 1
Advanced Solid Tumors; Renal Cell Carcinoma, 1 patient evaluable
  Number of Patients with minor regression or SD ≧16 wks.: 1
Advanced Solid Tumors; escalating doses 10 mg to 450 mg once daily, oral, 28-day cycles, 26 patients
  Maximum tolerated dose (MTD): not reached
Advanced Solid Tumors; including grade 1, 2 diarrhea, abdominal cramping, nausea, anorexia
  Adverse events: mild GI adverse events
Advanced Solid Tumors; of 20 evaluable patients
  Patients with stable disease (SD), number: 11
  Patients with stable disease (SD), percent: 55%
Advanced Solid Tumors; of those patients with SD
  Patients with tumor regression and/or prolonged stable disease (≧16 weeks), number: 10
Advanced Solid Tumors; once daily, oral
  Recommended Phase II Dose (RP2D): 300 mg
Advanced Solid Tumors; oral, once daily
  Pharmacokinetic exposure relative to predicted therapeutic level: well above the predicted therapeutic level
  Plasma concentration versus dose: dose-dependent increases in plasma concentration up to 300 mg once daily
Advanced Solid Tumors; oral, once daily, 10 mg to 450 mg
  Tolerability: well tolerated
Advanced Solid Tumors; patients with high levels of nuclear STK33 in archival tissue, P<0.0097
  Overall survival: improved
Advanced Solid Tumors; patients with high levels of nuclear STK33 in archival tissue, P<0.0273
  Median progression free survival (PFS): improved
Advanced Solid Tumors; patients with stable disease
  Median time to progression: 16 weeks
Cancer stem cell markers
  Inhibition of cancer stem cell markers: inhibition of cancer stem cell markers was observed
Nuclear NANOG
  Reduction of nuclear NANOG: potent in reducing nuclear NANOG
Nuclear STK33
  Reduction of nuclear STK33: potent in reducing nuclear NANOG and STK33
